How the values were obtained:
SLC19A1 = assay: Suppression of the c-MYC downstream target gene SLC19A1, RT-PCR in HeLa cells; type: cell-based, Human; conditions: 24 h, 10 μM, single agent
Description: The suppression of the expression of the downstream c-MYC target, SLC19A1, was measured by RT-PCR using Power SYBR® Green Cells-to-Ct™ Kit (Life Technologies). Adherent cells were plated on 96 well plates at 5,000 cells per well were treated for 24 h with monomer compounds and compounds capable of reversible interactions (1 nM-100 μM). Cells were subsequently washed in ice-cold PBS processed according to the manufacturer's instructions. Quantitative real-time PCR was performed using a ViiA™ 7 Real-time PCR System (Applied Biosystems, Foster City, CA, USA). GAPDH and ACTB served as internal controls. The primers used were (5′-3′): GAPDH-F: AGCCACATCGCTCAGACAC (SEQ ID NO:9), GAPDH-R: GCCCAATACGACCAAATCC (SEQ ID NO:10), ACTB-F: CCAACCGCGAGAAGATGA (SEQ ID NO:11), ACTB-R: […] (SEQ ID NO:12), SLC19A1-F: […] (SEQ ID NO:13), SLC19A1-R: […] (SEQ ID NO:14).
HeLa cells (1×104) were treated for 24 hours in 96 well plates with the compounds solubilized in DMSO. Compounds were added at 10 μM each and RNA expression measured by the Cells-to Ct method described above (Thermofisher).

BRD4 [1] = target: T1, BRD4 (Homo sapiens, UniProt O60885); assay: CURE-PRO-mediated BRD4 degradation in HeLa cells, Western blot; type: cell-based; parameters: endogenous in cells; host or cells: HeLa; conditions: 24 h
Description: (§1) All cell lines were purchased from ATCC or DSMZ and grown at 37° C. with 5% C02. Human HeLa cells were cultured in complete growth medium (Dulbecco's modified Eagle's medium (DMEM) supplemented with 10% FBS); MCF7 cells were cultured in complete growth medium (Dulbecco's modified Eagle's medium (DMEM) supplemented with 10% FBS and 0.01 mg/ml human recombinant insulin (Sigma Aldrich); Namalwa and MOLM-13 cells were cultured in complete growth medium (RPMI 1640 medium supplemented with 10% FBS); MV-4-11 were cultured in complete growth medium (Iscove's Modified Dulbecco's medium, supplemented with 10% FBS); HCT116 cells were cultured in complete growth medium (McCoy's 5a Medium supplemented with 10% FBS). For cellular degradation of BRD4 studies, cells were seeded in a 12-well plate at 70-80% confluency, allowed to attach overnight, and incubated with the indicated compounds for the indicated time. When indicated, a 15-minute pretreatment with 10 μM pomalidomide, 10 μM VHL298, 10 μM Nutlin3a, 1 μM MG-132 or 1 μM Carfilzomib was performed before the addition of CURE-PROs. For washout studies, after CURE-PRO treatment, media was aspirated and incubated with complete medium for the indicated time before lysis.
(§2) Anti-BRD4 (13440, 1:1,000 dilution for Western Blot and 1:25 dilution for ProteinSimple); Anti-BRD2 (5848 1:1,000 dilution for Western Blot and 1:25 dilution for ProteinSimple); β-Actin (3700, 1:2,000 dilution for Western Blot), β-Actin (4970, 1:50 dilution for ProteinSimple) anti-mouse IgG-HRP, and anti-rabbit IgG-HRP antibodies were purchased Cell Signaling Technology. Anti-GAPDH (600-401-A33, 1:100 dilution for ProteinSimple) was purchased from Rockland Immunochemicals, Inc. Anti-BRD3 (sc-81202, 1:200 dilution for Western Blot) was purchased from Santa Cruz Biotechnology.
HeLa, MCF7, or HCT116 cells (2.5-3×10^6) were treated for 24 hours with the indicated compounds solubilized in DMSO. The cells were washed in ice-cold PBS and were then lysed in RIPA lysis buffer (150 mM NaCl, 5 mM EDTA, 1% NP-40, 0.5% sodium deoxycholate, 0.1% SDS, 50 mM Tris, pH 8.0) with Roche protease inhibitor complete cocktail and phosphatase inhibitors (10 mM sodium fluoride, 10 mM sodium pyrophosphate, 1 mM sodium orthovanadate and 20 mM β-glycerophosphate). The total protein concentrations were determined by Bradford Protein Assay and 10-20 μg of protein was loaded onto 4-15% Tris-Glycine gradient gels (Biorad). After standard gel electrophoresis, the separated proteins were transferred to PVDF membrane by wet transfer. The immunoblots were then blocked for 1 hour in 5% skim milk in TBST or 5% BSA in TBST, according to manufacturer's instructions, before an overnight incubation at 4° C. with indicated antibodies and membranes. Membranes were then incubated with the appropriate horseradish peroxidase-conjugated secondary antibodies (1:5,000 dilution) for 1 h at room temperature and the bands were visualized using the Clarity Max Western ECL Substrate (Biorad) and the ChemiDoc Imaging System (Biorad). Signal was detected with ECL Western Blotting Substrate (Pierce) and X-ray film processed with a Konica SRX-101 X-ray film processor or captured by Bio-Rad's Chemidoc Imaging system.
HeLa cells (2.5×10^6) were treated for 24 hours with the sample compounds solubilized in DMSO. Compounds were added at 1-10 μM each. Standardized protein samples were electrophoresed and imaged as described in the immunoblotting description above. FIGS. 6-18 depicts the CURE-PRO-mediated BRD4 degradation for BRD monomers (JQ1 derivatives comprising of catechol linkers), and CRBN ligands, 8048 and 8049 (pomalidomide derivatives comprising boronic acid linkers) combined in a 1:1 ratio.
HeLa cells (2.5×10^6) were treated for 24 hours with the compounds solubilized in DMSO. The compounds were added at 10 μM each. Standardized protein samples were electrophoresed and imaged as described in the immunoblotting section above. […]

BRD4 [2] = target: T1, BRD4; assay: Summary of E3 ligase directed degradation of BRD4, estimated from Western Blot or WES (Tables 1-6); type: cell-based; parameters: endogenous in cells; host or cells: HeLa, MCF7 or HCT116; conditions: for Degradation of BRD4, combination with CRBN ligand [drawing 422] / Degradation of BRD4, combination with CRBN ligand [drawing 397] / Degradation of BRD4, combination with CRBN ligand [drawing 421]: Table 1; for Degradation of BRD4, combination with CRBN ligand [drawing 422]: CRBN ligand drawn as drawing 422 (by the text apparently 8066); for Degradation of BRD4, combination with CRBN ligand [drawing 397]: aromatic 1,2-diol- or hindered cis-1,2-diol-containing CRBN ligand drawn as drawing 397 (by the text apparently 8046); for Degradation of BRD4, combination with MDM2 ligand [drawing 431]: aromatic 1,2-diol-containing MDM2 ligand drawn as drawing 431 (by the text apparently 8314); for Degradation of BRD4, combination with CRBN ligand [drawing 421]: CRBN ligand drawn as drawing 421 (by the text apparently 8047)
Outline: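 HeLa, MCF7 or HCT116 cells treated 24 h with compounds in DMSO, lysed in RIPA buffer; BRD4 levels read by Western blot (ECL detection) or capillary WES with HRP detection. Check mark denotes 30% to 70% or higher protein degradation.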

BRD4 [3] = target: T1, BRD4; assay: CURE-PRO-mediated BRD4 degradation in HeLa cells, WES capillary electrophoresis (ProteinSimple); type: cell-based; parameters: endogenous in cells; host or cells: HeLa; conditions: 24 h, co-dosed with CRBN ligand 8047, 100 nM-10 μM each
Description: as §1, §2
WES Simple analysis was performed on WES system (ProteinSimple-Biotechne) according to the manufacturer's instructions. Total protein concentrations of cell lysates were determined by the Pierce BCA kit (Thermo Fisher). 3 μL of 0.3 μg/uL of the protein lysate was loaded onto a 12- to 230-kDa WES assay plate (ProteinSimple) where 300 nL sample was withdrawn through a capillary, subjected to electrophoretic separation of proteins by size, and followed by the simultaneous, HRP-based detection of proteins using the Anti-Rabbit Detection Module (Proteinsimple: #DM-001). The electropherograms were checked then the automatic peak detection was manually corrected if it was required.
HeLa cells (2.5×10^6) were treated for 4-24 hours with the compounds solubilized in DMSO. After 4 hours, indicated points were washed and cells were left in full growth media. Compounds were added at 10 μM each. […]

Compound	BRD4 degradation (BRD4 [1]; BRD ligand (monomer) alone)	Degradation of BRD4, combination with CRBN ligand [drawing 422] (BRD4 [2])	Degradation of BRD4, combination with CRBN ligand [drawing 397] (BRD4 [2])	Degradation of BRD4, combination with MDM2 ligand [drawing 431] (BRD4 [2]; Table 2)	Degradation of BRD4, combination with CRBN ligand [drawing 421] (BRD4 [2])	other results
Cc1sc2c(c1C)C(c1ccc(Cl)cc1)=N[C@@H](CC(=O)Nc1ccc(OCCOCCOCCOCCNc3cccc4c3C(=O)N(C3CCC(=O)NC3=O)C4=O)cc1)c1nnc(C)n1-2 (stereo partly drawn) [ARV-825, reference compound]	–	–	–	–	–	suppression of SLC19A1 expression (SLC19A1): Complete suppression of SLC19A1 was evident
COc1ccc2c(c1)C(c1ccc(Cl)cc1)=N[C@@H](CC(=O)NCCCCCNC(=O)c1cccc(B(O)O)c1)c1nnc(C)n1-2 [BRD-E08]	no change in expression is observed	✓ (A black check mark indicates efficacy of 30% to 70% or higher protein degradation)	✓ (A black check mark indicates efficacy of 30% to 70% or higher protein degradation)	✓ (A black check mark indicates efficacy of 30% to 70% or higher protein degradation)	–	BRD4 degradation (BRD4 [1]; co-treated 1:1 with CRBN ligand 8046, 10 μM each unless the value states a concentration, listed as BRD-E8): Degradation is observed at 100 nM and 1 μM
CCNC(=O)C[C@@H]1N=C(c2ccc(Cl)cc2)c2cc(OCCNC(=O)c3cccc(B(O)O)c3)ccc2-n2c(C)nnc21 [BRD-E21, (3-((2-(((4S)-6-(4-chlorophenyl)-4-(2-(ethylamino)-2-oxoethyl)-1-methyl-4H-benzo[f][1,2,4]triazolo[4,3-a][1,4]diazepin-8-yl)oxy)ethyl)carbamoyl)phenyl)boronic acid]	no change in expression is observed	–	–	✓ (A black check mark indicates efficacy of 30% to 70% or higher protein degradation)	✓ (A black check mark indicates efficacy of 30% to 70% or higher protein degradation)	–
COc1ccc2c(c1)C(c1ccc(Cl)cc1)=N[C@@H](CC(=O)NCCNC(=O)/C=C/c1cccc(B(O)O)c1)c1nnc(C)n1-2 [BRD-E30, (3-((E)-3-((2-(2-((4S)-6-(4-chlorophenyl)-8-methoxy-1-methyl-4H-benzo[f][1,2,4]triazolo[4,3-a][1,4]diazepin-4-yl)acetamido)ethyl)amino)-3-oxoprop-1-en-1-yl)phenyl)boronic acid]	no change in expression is observed	✓ (A black check mark indicates efficacy of 30% to 70% or higher protein degradation)	–	–	✓ (A black check mark indicates efficacy of 30% to 70% or higher protein degradation)	–
CCNC(=O)C[C@@H]1N=C(c2ccc(Sc3ccccc3)cc2)c2cc(OC)ccc2-n2c(C)nnc21 [BRD-E52C, N-ethyl-2-((4S)-8-methoxy-1-methyl-6-(4-(phenylthio)phenyl)-4H-benzo[f][1,2,4]triazolo[4,3-a][1,4]diazepin-4-yl)acetamide]	–	–	–	–	–	BRD4 degradation (BRD4 [3]): failed to induce degradation even at 10 μM
CCNC(=O)C[C@@H]1N=C(c2ccc(Cl)cc2)c2cc(OCCCCCCNC(=O)c3ccc(B(O)O)cc3)ccc2-n2c(C)nnc21 [BRD-E79, (4-((6-(((4S)-6-(4-chlorophenyl)-4-(2-(ethylamino)-2-oxoethyl)-1-methyl-4H-benzo[f][1,2,4]triazolo[4,3-a][1,4]diazepin-8-yl)oxy)hexyl)carbamoyl)phenyl)boronic acid]	no change in expression is observed	✓ (A black check mark indicates efficacy of 30% to 70% or higher protein degradation)	✓ (A black check mark indicates efficacy of 30% to 70% or higher protein degradation)	–	✓ (A black check mark indicates efficacy of 30% to 70% or higher protein degradation)	Degradation of BRD4, combination with MDM2 ligand [drawing 430] (BRD4 [2]; Table 2, aromatic 1,2-diol-containing MDM2 ligand drawn as drawing 430 (by the text apparently 8313)): ✓ (A black check mark indicates efficacy of 30% to 70% or higher protein degradation)

From patent US20240000950A1, “THERAPEUTIC CURE-PRO COMPOUNDS FOR TARGETED DEGRADATION OF BET DOMAIN PROTEINS, AND METHODS OF MAKING AND USING THEM” (CORNELL UNIVERSITY, priority 2020, published 2024)
